Test results: patent US12060347B2 (BRISTOL-MYERS SQUIBB COMPANY, priority 2016, dated 2024)

molecular target: T1, human PAR4 (Homo sapiens, UniProt Q96RI0); assay: PAR4 FLIPR assay: antagonism of agonist-peptide-induced calcium mobilization in PAR4-expressing HEK293 cells; format: cell-based; conditions: H-Ala-Phe(4-F)-[…]NH2-induced intracellular calcium mobilization, 11-point curves
T1 construct: expressed in transfected cells; host or cells: HEK293 PAR4 Clone 1.2A (BMS Arctic ID 383940)
T1 sequence (Q96RI0 18-385): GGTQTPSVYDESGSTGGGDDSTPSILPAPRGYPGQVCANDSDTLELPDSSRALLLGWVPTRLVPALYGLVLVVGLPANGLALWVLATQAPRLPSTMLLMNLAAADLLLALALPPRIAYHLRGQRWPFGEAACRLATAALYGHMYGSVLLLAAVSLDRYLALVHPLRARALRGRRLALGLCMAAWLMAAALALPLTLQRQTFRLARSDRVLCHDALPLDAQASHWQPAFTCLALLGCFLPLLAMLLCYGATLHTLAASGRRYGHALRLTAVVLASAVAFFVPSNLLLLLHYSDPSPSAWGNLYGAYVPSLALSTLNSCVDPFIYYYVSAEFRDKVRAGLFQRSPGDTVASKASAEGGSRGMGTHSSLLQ

IC50 | Compound
5.4 nM | C=C(C)c1cc(-c2nc3c(C)cc(OCCNS(=O)(=O)c4ccc(F)cc4)cc3s2)c2ncc(OC)nc2c1 [Example 241, 4-fluoro-N-(2-((2-(2-methoxy-7-(prop-1-en-2-yl)quinoxalin-5-yl)-4-methylbenzo[d]thiazol-6-yl)oxy)ethyl)benzenesulfonamide]
120 nM | COc1cnc2c(-c3nc4c(C)cc(OCCNS(=O)(=O)c5ccc(F)cc5)cc4s3)cc(C(C)(C)O)cc2n1 [Example 242, 4-fluoro-N-(2-((2-(7-(2-hydroxypropan-2-yl)-2-methoxyquinoxalin-5-yl)-4-methylbenzo[d]thiazol-6-yl)oxy)ethyl)benzenesulfonamide]
1.2 nM | COc1cnc2c(-c3nc4c(C)c(F)c(OC)cc4s3)cc(CO)cc2n1 [Example 243, (8-(5-fluoro-6-methoxy-4-methylbenzo[d]thiazol-2-yl)-3-methoxyquinoxalin-6-yl) methanol]
2 nM | COc1cnc2c(-c3nc4c(C)c(F)c(OC)cc4s3)cc(C(C)O)cc2n1 (stereo not drawn) [Example 244, 1-(8-(5-fluoro-6-methoxy-4-methylbenzo[d]thiazol-2-yl)-3-methoxyquinoxalin-6-yl) ethanol]
92 nM | COc1cnc2c(-c3nc4c(C)c(F)c(OC)cc4s3)cc(C(O)c3ccccc3)cc2n1 (stereo not drawn) [Example 245, (8-(5-fluoro-6-methoxy-4-methylbenzo[d]thiazol-2-yl)-3-methoxyquinoxalin-6-yl) (phenyl)methanol]
140 nM | COc1cnc2c(-c3nc4c(C)c(F)c(OC)cc4s3)cc(C(O)C3CC3)cc2n1 (stereo not drawn) [Example 246, Cyclopropyl(8-(5-fluoro-6-methoxy-4-methylbenzo[d]thiazol-2-yl)-3-methoxyquinoxalin-6-yl)methanol]
19 nM | Cc1cnc2c(-c3nc4c(C)cc(OCCNS(=O)(=O)c5ccc(F)cc5)cc4s3)cc(F)cc2n1 [Example 247, 4-fluoro-N-(2-((2-(7-fluoro-2-methylquinoxalin-5-yl)-4-methylbenzo[d]thiazol-6-yl)oxy)ethyl)benzenesulfonamide]
19 nM | COc1cnc2c(-c3nc4cc(F)c(OC(C)C)cc4s3)cc(CO)cc2n1 [Example 248, (8-(5-fluoro-6-isopropoxybenzo[d]thiazol-2-yl)-3-methoxyquinoxalin-6-yl)methanol]
6.9 nM | COc1cnc2c(-c3nc4c(C)cc(OCCNS(=O)(=O)c5cccnc5)cc4s3)cc(Cl)cc2n1 [Example 249, N-(2-((2-(7-chloro-2-methoxyquinoxalin-5-yl)-4-methylbenzo[d]thiazol-6-yl)oxy)ethyl)pyridine-3-sulfonamide]
31 nM | CCOC(=O)COc1cc(C)c2nc(-c3cc(Cl)cc4nc(OC)cnc34)sc2c1 [Example 250, Ethyl 2-((2-(7-chloro-2-methoxyquinoxalin-5-yl)-4-methylbenzo[d]thiazol-6-yl)oxy) acetate]
17 nM | COc1cnc2c(-c3nc4c(C)cc(OCC(=O)O)cc4s3)cc(Cl)cc2n1 [Example 251, 2-((2-(7-chloro-2-methoxyquinoxalin-5-yl)-4-methylbenzo[d]thiazol-6-yl)oxy)acetic acid]
0.5 nM | COc1ccc(NC(=O)OCCOc2cc(C)c3nc(-c4cc(CO)cc5nc(OC)cnc45)sc3c2)cn1 [Example 252, 2-((2-(7-(hydroxymethyl)-2-methoxyquinoxalin-5-yl)-4-methylbenzo[d]thiazol-6-yl)oxy)ethyl (6-methoxypyridin-3-yl)carbamate]
0.6 nM | COCc1cnc2c(-c3nc4ccc(OC)cc4s3)cc(C)cc2n1 [Example 253, 6-methoxy-2-(2-(methoxymethyl)-7-methylquinoxalin-5yl)benzo[d]thiazole]
1.5 nM | COCc1cnc2c(-c3nc4c(F)cc(OC)cc4s3)cc(C)cc2n1 [Example 254, 4-fluoro-6-methoxy-2-(2-(methoxymethyl)-7-methylquinoxalin-5-yl)benzo[d]thiazole]
0.8 nM | CCOc1ccc2nc(-c3cc(C)cc4nc(COC)cnc34)sc2c1 [Example 255, 6-ethoxy-2-(2-(methoxymethyl)-7-methylquinoxalin-5-yl)benzo[d]thiazole]
1.2 nM | COCc1cnc2c(-c3nc4ccccc4s3)cc(C)cc2n1 [Example 256, 2-(2-(methoxymethyl)-7-methylquinoxalin-5-yl)benzo[d]thiazole]
2.1 nM | COCc1cnc2c(-c3nc4c(F)cc(F)cc4s3)cc(C)cc2n1 [Example 257, 4,6-difluoro-2-(2-(methoxymethyl)-7-methylquinoxalin-5-yl)benzo[d]thiazole]
2.8 nM | COCc1cnc2c(-c3nc4c(OC)cc(OC)cc4s3)cc(C)cc2n1 [Example 258, 4,6-dimethoxy-2-(2-(methoxymethyl)-7-methylquinoxalin-5-yl)benzo[d]thiazole]
14 nM | COCc1cnc2c(-c3nc4c(OC)cccc4s3)cc(C)cc2n1 [Example 259, 4-methoxy-2-(2-(methoxymethyl)-7-methylquinoxalin-5-yl)benzo[d]thiazole]
4.8 nM | COCc1cnc2c(-c3nc4c(Cl)cccc4s3)cc(C)cc2n1 [Example 260, 4-chloro-2-(2-(methoxymethyl)-7-methylquinoxalin-5-yl)benzo[d]thiazole]

IC50 | Compound
1.2 nM | COCc1cnc2c(-c3nc4c(C)cccc4s3)cc(C)cc2n1 [Example 261, 2-(2-(methoxymethyl)-7-methylquinoxalin-5-yl)-4-methylbenzo[d]thiazole]
0.8 nM | COCc1cnc2c(-c3nc4c(C)cc(OC(F)(F)F)cc4s3)cc(C)cc2n1 [Example 262, 2-(2-(methoxymethyl)-7-methylquinoxalin-5-yl)-4-methyl-6-(trifluoromethoxy)benzo[d]thiazole]
0.8 nM | COCc1cnc2c(-c3nc4c(C)cc(OC(F)F)cc4s3)cc(C)cc2n1 [Example 263, 6-(difluoromethoxy)-2-(2-(methoxymethyl)-7-methylquinoxalin-5-yl)-4-methylbenzo[d]thiazole]
8.3 nM | COCc1cnc2c(-c3nc4ccc(C(=O)OC)cc4s3)cc(C)cc2n1 [Example 264]
6.8 nM | COCc1cnc2c(-c3nc4c(Cl)cc(OC)c(F)c4s3)cc(C)cc2n1 [Example 265, 4-chloro-7-fluoro-6-methoxy-2-(2-(methoxymethyl)-7-methylquinoxalin-5-yl)benzo[d]thiazole]
2.2 nM | COCc1cnc2c(-c3nc4c(Cl)cc(F)cc4s3)cc(C)cc2n1 [Example 266, 4-chloro-6-fluoro-2-(2-(methoxymethyl)-7-methylquinoxalin-5-yl)benzo[d]thiazole]
0.8 nM | COCc1cnc2c(-c3nc4c(F)c(F)c(OC)cc4s3)cc(C)cc2n1 [Example 267, 4,5-difluoro-6-methoxy-2-(2-(methoxymethyl)-7-methylquinoxalin-5-yl)benzo[d]thiazole]
0.9 nM | COCc1cnc2c(-c3nc4cc(Cl)c(OC)cc4s3)cc(C)cc2n1 [Example 268, 5-chloro-6-methoxy-2-(2-(methoxymethyl)-7-methylquinoxalin-5-yl)benzo[d]thiazole]
3.6 nM | COCc1cnc2c(-c3nc4c(OC)c(F)c(F)cc4s3)cc(C)cc2n1 [Example 269, 5,6-difluoro-4-methoxy-2-(2-(methoxymethyl)-7-methylquinoxalin-5-yl)benzo [d]thiazole]
17 nM | COCc1cnc2c(-c3nc4c(OC)cc(F)cc4s3)cc(C)cc2n1 [Example 270, 6-fluoro-4-methoxy-2-(2-(methoxymethyl)-7-methylquinoxalin-5-yl)benzo[d]thiazole]
1.5 nM | COCc1cnc2c(-c3nc4c(OC)c(F)c(OC)cc4s3)cc(C)cc2n1 [Example 271, 5-fluoro-4,6-dimethoxy-2-(2-(methoxymethyl)-7-methylquinoxalin-5-yl)benzo[d]thiazole]
3.2 nM | COCc1cnc2c(-c3nc4ccc(F)cc4s3)cc(C)cc2n1 [Example 272, 6-fluoro-2-(2-(methoxymethyl)-7-methylquinoxalin-5-yl)benzo[d]thiazole]
4.3 nM | COCc1cnc2c(-c3nc4c(F)cccc4s3)cc(C)cc2n1 [Example 273, 4-fluoro-2-(2-(methoxymethyl)-7-methylquinoxalin-5-yl)benzo[d]thiazole]
5.7 nM | COCc1cnc2c(-c3nc4ccc(Cl)cc4s3)cc(C)cc2n1 [Example 274, 6-chloro-2-(2-(methoxymethyl)-7-methylquinoxalin-5-yl)benzo[d]thiazole]
0.9 nM | COCc1cnc2c(-c3nc4c(Cl)cc(Cl)cc4s3)cc(C)cc2n1 [Example 275, 4,6-dichloro-2-(2-(methoxymethyl)-7-methylquinoxalin-5-yl)benzo[d]thiazole]
1.2 nM | COCc1cnc2c(-c3nc4cc(C)c(OC)cc4s3)cc(C)cc2n1 [Example 276, 6-methoxy-2-(2-(methoxymethyl)-7-methylquinoxalin-5-yl)-5-methylbenzo[d]thiazole]
9 nM | COCc1cnc2c(-c3nc4cc(F)c(OC)cc4s3)cc(C)cc2n1 [Example 277, 5-fluoro-6-methoxy-2-(2-(methoxymethyl)-7-methylquinoxalin-5-yl)benzo[d]thiazole]
4.6 nM | COc1cnc2c(-c3nc4c(F)c(F)c(OC)cc4s3)cc(C)cc2n1 [Example 278, 4,5-difluoro-6-methoxy-2-(2-methoxy-7-methylquinoxalin-5-yl)benzo[d]thiazole]
18 nM | COc1cnc2c(-c3nc4cc(C)c(OC)cc4s3)cc(C)cc2n1 [Example 279, 6-methoxy-2-(2-methoxy-7-methylquinoxalin-5-yl)-5-methylbenzo[d]thiazole]
